Assay results reported in the METLIN SMRT retention time set (Domingo-Almenara et al. 2019).

Assay: gradient 5% acetonitrile 3 min, to 50% in 2 min, to 85% in 15 min, held 3 min, 100 µL/min
Settings: column: Zorbax Extend-C18 2.1 x 50 mm; eluents: water / acetonitrile, 0.1% formic acid
Summary of the method: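 Using water and acetonitrile that each contained 0.1% formic acid, mixtures of ~100 pure standards were separated at 100 μL/min on a Zorbax Extend-C18 column (2.1 × 50 mm, 1.8 μm). The HPLC fed a quadrupole time-of-flight mass spectrometer working in positive and negative ionization mode, with dead and dwell volumes of 40 μL and 900 μL. Data were acquired over 3 months. Retention time was read from computationally picked adduct peaks after manual inspection of each.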

Compound	RP-LC retention time [s]
COC(=O)c1cn(Cc2ccc(OC)c(F)c2)nc1S(=O)(=O)N1CCCCC1	945
CCN1CCCn2cc(S(=O)(=O)Nc3ccc(C)cc3F)cc2C1=O	729
CN1c2ccccc2C(=O)NC12CCN(C(=O)Nc1ccccc1Cl)CC2	761
CC(C)CCNC(=O)C1(C)CN(S(=O)(=O)c2ccccc2)CC(=O)N1Cc1ccccc1 (stereo not given)	973
Cc1cccc(CN2CCCn3nc(C(=O)NCCc4cccs4)cc3C2=O)c1	820
CC(C)Cn1c(=O)c(-c2ccc(C(=O)N3CCC4(CC3)OCCO4)cc2)nc2ccccc21	987
COc1ccc(Cl)cc1S(=O)(=O)N1CCC(C(=O)NCCc2ccccc2)CC1	909
O=C(O)c1cn(-c2ccccc2F)nn1	650
CCC1Oc2ccc(S(=O)(=O)N3CCC(C(=O)NC4CCC(C)CC4)CC3)cc2NC1=O (stereo not given)	904
O=C(O)CCC(=O)Nc1ccccc1Cl	616
COCc1noc(C2CCCCN2CC(=O)Nc2nccs2)n1 (stereo not given)	720
COc1cc(NC(=O)Cn2c(C)cc(-c3nnc(C4CC4)o3)c2C)cc(OC)c1	829
O=C(NCCC1=CCCCC1)C1CCN(Cc2cc3ccccc3n2Cc2ccccc2Cl)CC1	924
CCN1C(=O)CCC2(C(=O)Nc3ccc(OC)cc3OC)CCCC=C12 (stereo not given)	789
Cc1nn(C2CCS(=O)(=O)C2)c2nc(-c3ccc(F)cc3)cc(C(=O)N3CCCC3)c12 (stereo not given)	779
O=C(c1ccco1)N1CCCn2cc(-c3ccccc3F)nc21	639
Cc1sc(-n2cccc2)nc1C(=O)N1CCN(c2ccccn2)CC1	623
CCC(CC)C(=O)NCCc1c[nH]c2ccc(C)cc12	860
CCOC(=O)c1c(S(=O)(=O)N2CCC(C(=O)Nc3cccc(F)c3)CC2)c(C)n(C)c1C	862
O=S(=O)(c1ccc2nc(N3CCN(c4ccc(F)cc4)CC3)ccc2c1)N1CCCC1	951
CCc1ccc(NC(=O)C2CCN(S(=O)(=O)c3cn(C(C)C)cn3)CC2)cc1	840
CS(=O)(=O)N1CCC(C(=O)Nc2cccc(C(F)(F)F)c2)Oc2ccc(Cl)cc21 (stereo not given)	1060
CCOC(=O)C1CCN(C(=O)CCCn2c(=O)c3cccn3c3ccc(Br)cc32)CC1	974
O=C1CCCCC(CNC(=O)c2cnccn2)N1 (stereo not given)	577
Cc1cc(C(=O)NCC(C)C)c2cc(F)ccc2n1	698
O=C(Cn1nc(Cc2cccnc2)c2ccccc2c1=O)NCCC1=CCCCC1	663
O=C1COc2cc(S(=O)(=O)N3CCCC3C(=O)NC3CCCCC3)c(Cl)cc2N1 (stereo not given)	779

Compound	RP-LC retention time [s]
CS(=O)(=O)N1CCCc2cc(C(=O)NCCC3=CCCCC3)ccc21	935
COC(=O)c1ccc2nc(NC(=O)C3CCCCC3)sc2c1	932
COC(=O)c1cc2n(n1)CC(C)(C(=O)NC1CCCC1)N(c1ccccc1C)C2=O (stereo not given)	801
Cc1cc(N(CCCl)CCCl)ccc1/C=N/NC(=O)Cc1cc(=O)oc2cc(O)ccc12	862
C=C1C(=O)OC2CC1C(OC(C)=O)C/C(C)=C/CC/C(C)=C\CCC2(C)O (stereo not given)	917
CCn1cc(CC(=O)Nc2ccc(OC)c(OC)c2)c2cccnc21	664
Cn1cc(CN2CCC(C(=O)NCCN3CCOCC3)CC2)c2cc(Cl)ccc21	568
CC1CCN(S(=O)(=O)c2ccc(-c3nnc(C(=O)NC4CCCCC4)o3)cc2)CC1	1120
Cc1ccc(CN2C(=O)COC[C@H]2C(=O)NCc2ccco2)cc1	737
O=C(NCCCN1CCCCC1)c1cc(=O)n2c(nc3ccccc32)s1	621
CCn1cc(S(=O)(=O)N2CCC(c3noc(COCCOC)n3)CC2)cn1	704
COCCn1ccc2c(OCC(=O)N(C(C)C)C(C)C)cccc2c1=O	798
Cc1cccc(CN2CCN(C3CCN(C(=O)Nc4ccccc4)CC3)C2=O)c1	851
CC1=C(c2cccc(Cl)c2)S(=O)(=O)N=C1N1CCCN(C(=O)CC(C)C)CC1	868
COc1ccc(-c2ncc(C(=O)O)c(=O)[nH]2)cc1OC	591
Cc1ccc(C)c(NC(=O)C2CCCN(S(=O)(=O)c3c[nH]c(C(=O)N4CCCCCC4)c3)C2)c1 (stereo not given)	923
O=C(NCCCN1CCCC1=O)c1csc(N2CCN(c3ccc(Cl)cc3)CC2)n1	881
COc1ccc(C(=O)N2CCC3(C2)C(=O)N(C)c2ccccc23)cc1OC (stereo not given)	714
O=C(NC1CCCCC1)c1c2c(nc3ccccc13)CCC2	690
Cn1nc2n(c1=O)CCN(S(=O)(=O)c1ccc(C#N)cc1)CC2	655
CN(Cc1cccs1)C(=O)NC(C)(C)C	817
CCc1cccc2c1[nH]c1cc(NC(=O)CCc3c(C)[nH]c(=O)[nH]c3=O)ccc12	677
O=C(c1cocn1)N1CC(F)(F)C[C@H]1c1nnc(-c2ccncc2)o1	638
CC(=O)N1CCc2cc(N3CC(C(=O)Nc4cc(F)ccc4F)CC3=O)ccc21 (stereo not given)	712
CN1C(=O)C(CC(=O)NC2CCCCC2)Sc2ncccc21 (stereo not given)	703
COc1ccc(Cl)cc1C(=O)CN1C(=O)COc2ccccc2C1=O	988
COC1CN(c2cccc(F)c2)C12CCN(C(=O)NC1CCCCC1)CC2 (stereo not given)	1030

Further lines, results first:

RP-LC retention time [s]	Compound
1210	COC(=O)c1ccc2c(=O)n(-c3ccccc3)c(N3CCC(C)CC3)nc2c1
1200	O=c1c2cc3c(cc2nc(SCc2nc(-c4ccc(F)cc4)no2)n1Cc1ccccc1)OCO3
619	O=C(O)CCNc1c(-c2ccc(F)cc2)nc2cnccn12
877	CCc1nnc(-c2cn(CC(=O)NCCCc3ccccc3)c3ccccc23)o1
750	O=C(Nc1c(-c2ccc(F)cc2)nc2ccccn12)c1cccc(Cl)c1
686	CCCN(Cc1ccc(OCC)cc1)Cc1cc(=O)n2cc(Cl)ccc2n1
697	COc1ccc(NC(=O)NCC(c2cccnc2)c2cn(C)c3ccccc23)c(OC)c1 (stereo not given)
1110	Cc1cc2nc(Nc3nc(SCc4ccc(Cl)cc4)cc(=O)[nH]3)nc(C)c2cc1C
799	CCOC(=O)c1noc2ncnc(Nc3ccc(F)cc3F)c12
1200	CCOc1ccc(-c2nc(Cc3noc(-c4ccccc4)n3)c(C)o2)cc1
831	CCCSc1nnc(CNC(=O)c2ccccc2F)n1-c1cccc(C(F)(F)F)c1
1260	CCOc1ccccc1-c1noc(-c2nnn(Cc3nc(-c4cccc(C)c4)oc3C)c2C)n1
1110	COc1ccc(-n2ncc3c(=O)n(Cc4nc(-c5cccc(Br)c5)no4)cnc32)cc1
756	Cc1ccc2c(Nc3ccc(F)cc3C)c(-c3nc(C)no3)cnc2n1
1020	Cc1nc2cc(-c3noc(CCc4c[nH]c5ccccc45)n3)ccc2o1
907	CSc1ccc(NC(=O)C2c3ccccc3Oc3ccccc32)nn1
614	c1ccc(COCCc2noc(C3CCCN3)n2)cc1 (stereo not given)
623	Cc1cc(C)n2cc(CSc3nc4cc([N+](=O)[O-])ccc4s3)nc2n1

RP-LC retention time [s]	Compound
754	COC(=O)c1cccc(Nc2c(-c3ccc(N4CCOCC4)cc3)nc3cnccn23)c1
768	CCCN(CCc1ccccc1)C1CCc2c(O)cccc2C1 (stereo not given)
912	O=C(NCc1ccco1)Nc1cccc(-c2noc(C3CCC3)n2)c1
668	CCOc1ccccc1C(=O)NCCc1csc(-c2cccnc2)n1
1170	CC(C)CC(=O)Nc1ccc(-c2nc(-c3ccc(F)cc3)no2)cc1
742	O=C(CCNc1c(-c2cccc(F)c2)nc2cnccn12)NCc1ccccc1F
713	CCn1c(CCc2ccccc2NS(=O)(=O)c2cccc3nsnc23)nc2ccccc21
666	COc1ccc(-c2nc(-c3ccc4c(c3)ncn4CCN3CCOCC3)no2)c(C)c1
919	COCCNC(=O)CCc1cn(Cc2ccccc2C)c2ccccc12
855	O=C(CN1CCN(c2ccccc2F)C1=O)Nc1ccc(OC(F)(F)F)cc1
1070	CCOc1ccc(CC(=O)N2c3ccccc3CC2c2nc(C3CC3)no2)cc1OCC (stereo not given)
1280	CCCN1C(=O)COc2ccc(-c3noc(-c4ccccc4Br)n3)cc21
812	CN1C(=O)c2cccnc2Sc2cc(C(=O)NCc3ccc(Cl)cc3)ccc21
1130	CCc1ccc(-c2noc(Cn3cnc4c(cnn4-c4ccc(OC)cc4)c3=O)n2)cc1
1170	CCCCOc1ccc(C(=O)NC2(c3nc(-c4cccnc4)no3)CCCCC2)cc1
1110	O=c1c2cc(-c3ccccc3Cl)nn2cnn1Cc1nc(-c2ccccc2)no1
858	CCCn1cc(C2=CCN(C(=O)Nc3ccc(OC)cc3)CC2)c2cccnc21
1050	O=c1c2sccc2n(Cc2nc(-c3cccc(Br)c3)no2)c(=O)n1-c1ccccc1
